Results reported in patent US6953789B2, “Thiol compounds, their production and use” (Takeda Chemical Industries, Ltd., priority 1998, dated 2005).

Target: T1, recombinant human MMP-13 (Homo sapiens, UniProt P45452)
T1 construct: made in house; host or cells: baculovirus (pBlueBac4 / Bac-N-Blue; virus made in Sf9), expressed in High-Five insect cells; culture supernatant used
Test: Assay of MMP-13 inhibiting activity (fluorogenic peptide substrate)
Type: biochemical
Conditions: 37° C., 2 hours
Source text: Based on the sequence described in the literature by Freije, J. M. et al (Journal of Biological Chemistry, 269: 16766-16773, 1994) and using a PCR method known per se, a human MMP-13 cDNA was obtained.
A pBlueBac4 (Invitrogen) and a Baculovirus vector Bac-N-Blue (Invitrogen) to each of which the human MMP-13 cDNA obtained above was integrated were co-transfected to an Sf9 cell to obtain a MMP-13-expressing recombinant virus.
The recombinant virus thus obtained was infected to a High-Five cell (Invitrogen), and the culture supernatant after three days was employed as an enzyme solution. Experiment 2 Assay of MMP-13 inhibiting activity
75 μl of a sample containing the recombinant human MMP-13, 200 mM sodium chloride, 20 mM calcium chloride, 0.1% Brij 35, 1 mM 2-mercaptoethanol, 200 mM tris-HCl buffer solution (pH7.5) and a test substance at various concentrations was treated with 25 μl of 40 μM MOCAc-Pro-Leu-Gly-Leu-A2pr(DNP)-Ala-Arg-NH2 (PEPTIDE KENKYUSHO) to initiate a reaction and kept at 37° C. for 2 hours, and then 100 μl of 500 mM sodium acetate-HCl buffer solution (pH3.0) was added to terminate the reaction.
The level of liberated MOCAc-Pro-Leu-Gly was determined using a fluorophotometer (MTP-32/F2: CORONA DENKI) at the excitation wavelength of 330 nm and the fluorescent wavelength of 405 nm. The fluorescent level of the reaction in the absence of a test substance was regarded as 100%, and the concentration of each test substance required for achieving 50% inhibition was indicated as IC50.

IC50 (Table 3) [nM]	SMILES	further results
	O=C(SC1CCN(Cc2ccc(Oc3ccccc3)cc2)C1=O)c1ccccc1 (stereo not drawn) [Example 28, 3-Benzoylthio-1-(4-phenoxybenzyl)pyrrolidin-2-one]	IC50 (Table 8): 1000 nM
	O=C1C(S)CCN1Cc1ccc(Oc2ccccc2)cc1 (stereo not drawn) [Example 29, 3-Mercapto-1-(4-phenoxybenzyl)pyrrolidin-2-one]	IC50 (Table 8): 2000 nM
	CC(=O)SC1CC(=O)N(Cc2ccc(Oc3ccc(F)cc3)cc2)C1 (stereo not drawn) [Example 30, 4-Acetylthio-1-(4-(4′-fluorophenoxy)benzyl)pyrrolidin-2-one]	IC50 (Table 9): 10 nM
	O=C1CC(S)CN1Cc1ccc(Oc2ccc(F)cc2)cc1 (stereo not drawn) [Example 31, 4-Mercapto-1-(4-(4′-fluorophenoxy)benzyl)pyrrolidin-2-one]	IC50 (Table 9): 3 nM
	CC(=O)SC1CC(=O)N(Cc2ccc(Oc3ccc(Cl)cc3)cc2)C1 (stereo not drawn) [Example 32, 4-Acetylthio-1-(4-(4′-chlorophenoxy)benzyl)pyrrolidin-2-one]	IC50 (Table 9): 8 nM
	O=C1CC(S)CN1Cc1ccc(Oc2ccc(Cl)cc2)cc1 (stereo not drawn) [Example 33, 4-Mercaoto-1-(4-(4′-chlorophenoxy)benzyl)pyrrolidin-2-one]	IC50 (Table 9): 5 nM
	CC(=O)SC1CC(=O)N(Cc2ccc(Oc3ccc(Br)cc3)cc2)C1 (stereo not drawn) [Example 34, 4-Acetylthio-1-(4-(4′-bromophenoxy)benzyl)pyrrolidin-2-one]	IC50 (Table 9): 10 nM
	O=C1CC(S)CN1Cc1ccc(Oc2ccc(Br)cc2)cc1 (stereo not drawn) [Example 35, 4-Mercapto-1-(4-(4′-bromophenoxy)benzyl)pyrrolidin-2-one]	IC50 (Table 9): 6 nM
	COc1ccc(Oc2ccc(CN3CC(SC(C)=O)CC3=O)cc2)cc1 (stereo not drawn) [Example 36, 4-Acetylthio-1-(4-(4′-methoxyphenoxy)benzyl)pyrrolidin-2-one]	IC50 (Table 9): 50 nM
	COc1ccc(Oc2ccc(CN3CC(S)CC3=O)cc2)cc1 (stereo not drawn) [Example 37, 4-Mercapto-1-(4-(4′-methoxyphenoxy)benzyl)pyrrolidin-2-one]	IC50 (Table 9): 5 nM
	CC(=O)SC1CC(=O)N(Cc2cccc(Oc3ccccc3)c2)C1 (stereo not drawn) [Example 40, 4-Acetylthio-1-(3-phenoxybenzyl)pyrrolidin-2-one]	IC50 (Table 4): 1000 nM
	O=C1CC(S)CN1Cc1cccc(Oc2ccccc2)c1 (stereo not drawn) [Example 41, 4-Mercapto-1-(3-phenoxybenzyl)pyrrolidin-2-one]	IC50 (Table 4): 200 nM
	CC(=O)SC1CCC(=O)N(Cc2ccc(Oc3ccccc3)cc2)C1=O (stereo not drawn) [Example 42, 3-Acetylthio-1-(4-phenoxybenzyl)piperidine-2,6-dione]	IC50 (Table 13): 70 nM
	CC(=O)SC1CCC(=O)N(Cc2ccc(Oc3ccc(Br)cc3)cc2)C1=O (stereo not drawn) [Example 43, 3-Acetylthio-1-[4-(4-bromophenoxy)benzyl]piperidine-2,6-dione]	IC50 (Table 13): 20 nM
	O=C(SC1CCC(=O)N(Cc2ccc(Oc3ccccc3)cc2)C1=O)c1ccccc1 (stereo not drawn) [Example 44, 3-Benzoylthio-1-(4-phenoxybenzyl)piperidine-2,6-dione]	IC50 (Table 13): 10 nM
	CC(=O)SC1CCCN(Cc2ccc(Oc3ccccc3)cc2)C1=O (stereo not drawn) [Example 46, 3-Acetylthio-1-(4-phenoxybenzyl)piperidin-2-one]	IC50 (Table 13): > 10000 nM
	O=C(SC1CCCN(Cc2ccc(Oc3ccccc3)cc2)C1=O)c1ccccc1 (stereo not drawn) [Example 47, 3-Benzoylthio-1-(4-phenoxybenzyl)piperidin-2-one]	IC50 (Table 13): 4000 nM

IC50 (Table 3) [nM]	SMILES	further results
	O=C1C(S)CCCN1Cc1ccc(Oc2ccccc2)cc1 (stereo not drawn) [Example 48, 3-Mercapto-1-(4-phenoxybenzyl)piperidin-2-one]	IC50 (Table 13): 5000 nM
0.65	NC(=O)S[C@@H]1CC(=O)N(Cc2ccc(Oc3ccccc3)cc2)C1 [Example 49, S-[(3R)-5-oxo-1-(4-phenoxybenzyl)pyrrolidinyl]thiocarbamate]	
3	CNC(=O)S[C@@H]1CC(=O)N(Cc2ccc(Oc3ccccc3)cc2)C1 [Example 50, S-[(3R)-5-oxo-1-(4-phenoxybenzyl)pyrrolidinyl]methylthiocarbamate]	
1	CCNC(=O)S[C@@H]1CC(=O)N(Cc2ccc(Oc3ccccc3)cc2)C1 [Example 51, S-[(3R)-5-oxo-1-(4-phenoxybenzyl)pyrrolidinyl]ethylthiocarbamate]	
1.5	O=C(NCc1ccccc1)S[C@@H]1CC(=O)N(Cc2ccc(Oc3ccccc3)cc2)C1 [Example 54, S-[(3R)-5-oxo-1-(4-phenoxybenzyl)pyrrolidinyl]benzylthiocarbamate]	
1.3	CC(=O)NC(=O)S[C@@H]1CC(=O)N(Cc2ccc(Oc3ccccc3)cc2)C1 [Example 55, S-[(3R)-5-oxo-1-(4-phenoxybenzyl)pyrrolidinyl]acetylthiocarbamate]	
1.4	O=C(NC(=O)c1ccccc1)S[C@@H]1CC(=O)N(Cc2ccc(Oc3ccccc3)cc2)C1 [Example 56, S-[(3R)-5-oxo-1-(4-phenoxybenzyl)pyrrolidinyl]benzoylthiocarbamate]	
0.81	CCOC(=O)NC(=O)S[C@@H]1CC(=O)N(Cc2ccc(Oc3ccccc3)cc2)C1 [Example 57, O-Ethyl S-[(3R)-5-oxo-1-(4-phenoxybenzyl)pyrrolidinyl]imidothiodicarbonate]	
0.7	CCOC(=O)CNC(=O)S[C@@H]1CC(=O)N(Cc2ccc(Oc3ccccc3)cc2)C1 [Example 58, Ethyl [({[(3R)-5-oxo-1-(4-phenoxybenzyl)pyrrolidinyl]sulfanyl}carbonyl)amino]acetate]	
2	O=C(O)CNC(=O)S[C@@H]1CC(=O)N(Cc2ccc(Oc3ccccc3)cc2)C1 [Example 59, [({[(3R)-5-Oxo-1-(4-phenoxybenzyl)pyrrolidinyl]sulfanyl}carbonyl)amino]acetic acid]	
0.9	CCOC(=O)CCNC(=O)S[C@@H]1CC(=O)N(Cc2ccc(Oc3ccccc3)cc2)C1 [Example 60, Ethyl [({[(3R)-5-oxo-1-(4-phenoxybenzyl)pyrrolidinyl]sulfanyl}carbonyl)amino]propanoate]	
1.8	O=C(O)CCNC(=O)S[C@@H]1CC(=O)N(Cc2ccc(Oc3ccccc3)cc2)C1 [Example 61, N-({[(3R)-5-oxo-1-(4-phenoxybenzyl)pyrrolidinyl]sulfanyl}carbonyl)-p-alanine]	
3000	CN(C)C(=O)S[C@@H]1CC(=O)N(Cc2ccc(Oc3ccccc3)cc2)C1 [Example 62, S-[(3R)-5-oxo-1-(4-phenoxybenzyl)pyrrolidinyl]dimethylcarbamothioate]	
2000	O=C1C[C@@H](SC(=O)N2CCOCC2)CN1Cc1ccc(Oc2ccccc2)cc1 [Example 63, S-[(3R)-5-oxo-1-(4-phenoxybenzyl)pyrrolidinyl]4-morpholinecarbothioate]	
3.2	CCC(=O)S[C@@H]1CC(=O)N(Cc2ccc(Oc3ccccc3)cc2)C1 [Example 64, S-[(3R)-5-oxo-1-(4-phenoxybenzyl)pyrrolidinyl]propanethioate]	
1.3	CCCC(=O)S[C@@H]1CC(=O)N(Cc2ccc(Oc3ccccc3)cc2)C1 [Example 65, S-[(3R)-5-oxo-1-(4-phenoxybenzyl)pyrrolidinyl]butanethioate]	

SMILES	IC50 (Table 3) [nM]	further results
CCCNC(=O)SC1CC(=O)N(Cc2ccc(Oc3ccccc3)cc2)C1 (stereo not drawn) [Example 52, S-[5-oxo-1-(4-phenoxybenzyl)-3-pyrrolidinyl]propylcarbamothioate]	2	
O=C(Nc1ccccc1)SC1CC(=O)N(Cc2ccc(Oc3ccccc3)cc2)C1 (stereo not drawn) [Example 53, S-[5-oxo-1-(4-phenoxybenzyl)-3-pyrrolidinyl]phenylcarbamothioate]	1	
CCCCC(=O)SC1CC(=O)N(Cc2ccc(Oc3ccccc3)cc2)C1 (stereo not drawn) [Example 66, S-[5-oxo-1-(4-phenoxybenzyl)-3-pyrrolidinyl]pentanethioate]	1	
